Experimental data published in patent US20110178165A1, “TETRAHYDROFURANYL SULFONAMIDES AND PHARMACEUTICAL COMPOSITIONS THEREOF” (Pfizer Inc., priority 2008, published 2011).

Test system: AMPA receptors
Experiment: AMPA ES cell FLIPR screen (AMPA potentiator assay)
Format: cell-based
Settings: murine ES cell-derived neurons, FLIPR Fluo-4 calcium, 32 uM AMPA challenge; * = geometric mean of 2 EC50 determinations
Method: The murine ES cell line used was E14-Sx1-16C, which has a targeted mutation in the Sox1 gene, a neuroectodermal marker, that offers G418 resistance when the Sox1 gene is expressed (Stem Cell Sciences). ES cells were maintained undifferentiated as previously described (Roach). […] ES cells were plated on gelatin-coated dishes (BD Biosciences), the media was changed daily and the cells were dissociated with 0.05% Trypsin EDTA (Invitrogen) every other day.
Embryoid Body Formation: Prior to embryoid body (EB) formation the ES cells were weaned from FBS onto Knockout Serum Replacement (KSR) (Invitrogen). To form EBs, ES cells were dissociated into a single cell suspension, then 3×10^6 cells were plated in bacteriology dishes (Nunc 4014) and grown as a suspension culture in NeuroEB-I medium that consisted of Knockout™ D-MEM (Invitrogen), supplemented with 10% KSR (Invitrogen), 0.2 mM L-Glutamine (Invitrogen), 0.1 mM MEM non-essential amino acids (Invitrogen), 30 μg/ml Gentamicin (Invitrogen), 1000 u/ml ESGRO (Chemicon), 0.1 mM 2-Mercaptoethanl (Sigma) and 150 ng/ml Transferrin (Invitrogen). The plates were put on a Stovall Belly Button shaker in an atmospheric oxygen incubator. The media was changed on day 2 of EB formation with NeuroEB-I and on day 4 with NeuroEB-II (NeuroEB-I plus 1 μg/ml mNoggin [R&D Systems]).
Neuronal Precursor Selection and Expansion: On day 5 of EB formation, EBs were dissociated with 0.05% Trypsin EDTA, and 4×10^6 cells/100 mm dish were plated on Laminin coated tissue culture dishes in Neuroll-G418 medium that consisted of a base medium of a 1:1 mixture of D-MEM/F12 supplemented with N2 supplements and NeuroBasal Medium supplemented with B27 supplement and 0.1 mM L-Glutamine (all from Invitrogen). The base medium was then supplemented with 10 ng/ml bFGF (Invitrogen), 1 μg/ml mNoggin, 500 ng/ml SHH—N, 100 ng/ml FGF-8b (R&D Systems), 1 μg/ml Laminin and 200 μg/ml G418 (Invitrogen) for selection of neuronal precursors expressing Sox-1. The plates were put in an incubator that contained 2% Oxygen and were maintained in these conditions. During the 6-day selection period, the Neuroll media was changed daily. On day 6, the surviving neuronal precursor foci were dissociated with 0.05% Trypsin EDTA and the cells were plated at a density of 1.5×10^6 cells/100 mm Laminin coated dish in Neuroll-G418 medium. The cells were dissociated every other day for expansion, and prepared for Cryopreservation at passage 3 or 4. The crypreservation medium contained 50% KSR, 10% Dimethyl Sulfoxide (DMSO) (Sigma) and 40% Neurol-G418I medium. Neuronal precursors were cryopreserved at a concentration of 4×10^6 cells/ml and 1 ml/cryovial in a controlled rate freezer overnight then transferred to an ultra-low freezer or liquid nitrogen for long-term storage. […]

Compared with `CC(C)S(=O)(=O)N[C@@H]1COC[C@@]1(O)c1ccc(-c2ccccc2)cc1` (stereo in doubt) [Example 4, N-[(3R,4R)-4-biphenyl-4-yl-4-hydroxytetrahydrofuran-3-yl]propane-2-sulfonamide], `CC(C)S(=O)(=O)N[C@H]1COC[C@]1(O)c1ccc(-c2ccccc2)cc1` [Example 3, N-[(3S,4S)-4-biphenyl-4-yl-4-hydroxytetrahydrofuran-3-yl]propane-2-sulfonamide] is lower in EC50: over 31.6 µM for the first, 1.19 µM for the second.

Compared with `CC(C)S(=O)(=O)N[C@H]1COC[C@]1(O)c1ccc(-c2ccc(C#N)s2)cc1` [Example 1, N-{(3S,4S)-4-[4-(5-cyano-2-thienyl)phenyl]-4-hydroxytetrahydrofuran-3-yl}propane-2-sulfonamide], `CC(C)S(=O)(=O)N[C@@H]1COC[C@@]1(O)c1ccc(-c2ccc(C#N)s2)cc1` [Example 2, N-{(3R,4R)-4-[4-(5-cyano-2-thienyl)phenyl]-4-hydroxytetrahydrofuran-3-yl}propane-2-sulfonamide] is higher in EC50: 5.93 µM for the first, over 31.6 µM for the second. The first is the more potent here.
